The source of these data is patent publication US12653914B2, “Compounds for fast and efficient click release” (priority 2019, dated 2026).

pIC50: −log10 of the molar value. Where two headings read alike, the source gives them in different places. Where a SMILES comes first, the peptide text is derived from it. [ ]: non-standard residue; d: D form. The star is where a group is joined. Dolaproine = CO[C@@H]([C@@H]1CCCN1)[C@@H](C)C(=O)O; X1 = COC(=O)[C@]1(O)CC/C=C/[C@H](OC(=O)*)CC1; Dil = CC[C@H](C)[C@H](NC)[C@@H](CC(=O)O)OC; X2 = C[C@@H](N*)[C@@H](O)c1ccccc1; NMeV = CN[C@H](C(=O)O)C(C)C

Data set [1] in a line: Second order rate constants, TCO with tetrazine activators, stopped-flow spectrophotometry in PBS. As to conditions: PBS at 37° C., 25 μM tetrazine, 50 μM TCO. The procedure: Second order rate constants for the reaction of tetrazines activators with 1.13 and 1.71 were determined using a SX20 stopped-flow spectrophotometer from Applied Photophysics. Measurements were performed at 37° C. with 25 μM tetrazine and 50 μM TCO in PBS, in triplicates, monitored at 535 nm. Data was analyzed using GraphPad Prism. Second order rate constants were determined from nonlinear fitting of the absorbance vs. time curves to the second order rate equation. […] Importantly, 2.17 and 2.18 are very reactive, but afford low release yields with TCO triggers that are not part of this invention (i.e. 1.71) [Versteegen et al., Angew. Chem. Int. Ed. 2013, 52, 14112-14116].

Data set [2] is described as follows: Trigger stability in vitro in PBS. Particulars: 37° C., 200 μM, after 48 h, n=3. Type of data set: physicochemical. On the procedure: (§1) 1.13 was incubated at 37° C. in PBS and human plasma at a concentration of 200 μM. The concentration after 12, 24 and 48 h was determined (n=3) by titration with activator 2.9 and simultaneous absorbance measurements.
The format of data set [3] is in vitro ADME. Particulars: human, 200 μM. The procedure:
as §1

Data set [4] relates to HT-1080 cells (human fibrosarcoma). The data set can be described thus: Cell viability, MTT assay. Type of data set: cell-based. Particulars: then 94 h, n=3. On the procedure: HT-1080 cells (human fibrosarcoma) were added with serial dilutions of the TCO-MMAE prodrug 1.16 (100 μM-0.32 nM) in growth medium and 10 μL of a stock solution of activator 2.18 (50 μM in PBS) in a 96-well plate (n=3). After a 2 h incubation at 37° C., the medium was refreshed and the cells were incubated for 94 more hours.

Regarding `COC(=O)[C@]1(O)CC/C=C/[C@H](OC(=O)NCCOCCOCCOCCO)CC1` [Compound 1.13, Methyl(1S,4E,6R)-1-hydroxy-6-{[(2-{2-[2-(2-hydroxyethoxy)ethoxy]ethoxy}ethyl)carbamoyl]oxy}cyclooct-4-ene-1-carboxylate], the k2 in data set [1] (activator 2.12) amounted to 260 ± 40 M⁻¹ s⁻¹; in data set [1] (activator 2.17) it was 8700 ± 1200 M⁻¹ s⁻¹; in data set [1] (activator 2.18), 10400 ± 1100 M⁻¹ s⁻¹; in data set [1] (activator 2.9) it was 70 ± 10 M⁻¹ s⁻¹. Moreover, the “intact TCO” value in data set [2] amounted to 101±5%. Moreover, the “residual intact TCO” value is recorded as 98±7% in data set [3] (24 h) and 76±9% in data set [3] (48 h).

With `CC[C@H](C)[C@@H]([C@@H](CC(=O)N1CCC[C@H]1[C@H](OC)[C@@H](C)C(=O)N[C@H](C)[C@@H](O)c1ccccc1)OC)N(C)C(=O)[C@@H](NC(=O)[C@H](C(C)C)N(C)C(=O)O[C@H]1/C=C/CC[C@@](O)(C(=O)OC)CC1)C(C)C` [Compound 1.16, TCO-MMAE] (X1-[NMeV]V[Dil][Dolaproine]-X2), the pIC50 – broadly, the IC50 on a negative log10 scale, so that one unit is a factor of ten – in data set [4] (HT-1080, 1.16 alone (no activator), 2 h incubation) is 5.89; in data set [4] (HT-1080, in the presence of activator 2.18, 2 h incubation), 9.52.
